From ChEMBL document CHEMBL5678818, “Discovery of potent SOS1 inhibitors that block RAS activation via disruption of the RAS-SOS1 interaction” (Proc Natl Acad Sci U S A, 2019)

How the values were obtained:
[1] = target: Vascular endothelial growth factor receptor 1 (Homo sapiens) (UniProt P17948); test: Inhibition of FLT1 (unknown origin) assessed as residual activity at 1000 nM by KINOMEscan analysis relative to control
[2] = target: Leukocyte tyrosine kinase receptor (Homo sapiens) (UniProt P29376); test: Inhibition of LTK (unknown origin) assessed as residual activity at 1000 nM by KINOMEscan analysis relative to control
[3] = target: T1, Myosin light chain kinase family member 4 (Homo sapiens) (UniProt Q86YV6); test: Inhibition of MYLK4 (unknown origin) assessed as residual activity at 1000 nM by KINOMEscan analysis relative to control
T1 sequence (whole entry): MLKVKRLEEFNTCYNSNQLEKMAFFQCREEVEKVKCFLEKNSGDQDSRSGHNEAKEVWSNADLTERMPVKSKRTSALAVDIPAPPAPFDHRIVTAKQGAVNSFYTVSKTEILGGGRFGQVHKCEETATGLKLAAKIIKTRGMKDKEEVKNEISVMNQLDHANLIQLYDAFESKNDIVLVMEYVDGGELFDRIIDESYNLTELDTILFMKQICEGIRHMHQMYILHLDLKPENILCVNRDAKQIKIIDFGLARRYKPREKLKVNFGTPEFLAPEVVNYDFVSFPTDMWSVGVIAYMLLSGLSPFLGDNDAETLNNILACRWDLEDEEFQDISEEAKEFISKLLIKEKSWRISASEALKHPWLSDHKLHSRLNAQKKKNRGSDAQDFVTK

[4] = target: Peripheral plasma membrane protein CASK (Homo sapiens) (UniProt O14936); test: Inhibition of CASK (unknown origin) assessed as residual activity at 1000 nM by KINOMEscan analysis relative to control
Sequence of Peripheral plasma membrane protein CASK (Homo sapiens) (O14936 whole entry, looked up): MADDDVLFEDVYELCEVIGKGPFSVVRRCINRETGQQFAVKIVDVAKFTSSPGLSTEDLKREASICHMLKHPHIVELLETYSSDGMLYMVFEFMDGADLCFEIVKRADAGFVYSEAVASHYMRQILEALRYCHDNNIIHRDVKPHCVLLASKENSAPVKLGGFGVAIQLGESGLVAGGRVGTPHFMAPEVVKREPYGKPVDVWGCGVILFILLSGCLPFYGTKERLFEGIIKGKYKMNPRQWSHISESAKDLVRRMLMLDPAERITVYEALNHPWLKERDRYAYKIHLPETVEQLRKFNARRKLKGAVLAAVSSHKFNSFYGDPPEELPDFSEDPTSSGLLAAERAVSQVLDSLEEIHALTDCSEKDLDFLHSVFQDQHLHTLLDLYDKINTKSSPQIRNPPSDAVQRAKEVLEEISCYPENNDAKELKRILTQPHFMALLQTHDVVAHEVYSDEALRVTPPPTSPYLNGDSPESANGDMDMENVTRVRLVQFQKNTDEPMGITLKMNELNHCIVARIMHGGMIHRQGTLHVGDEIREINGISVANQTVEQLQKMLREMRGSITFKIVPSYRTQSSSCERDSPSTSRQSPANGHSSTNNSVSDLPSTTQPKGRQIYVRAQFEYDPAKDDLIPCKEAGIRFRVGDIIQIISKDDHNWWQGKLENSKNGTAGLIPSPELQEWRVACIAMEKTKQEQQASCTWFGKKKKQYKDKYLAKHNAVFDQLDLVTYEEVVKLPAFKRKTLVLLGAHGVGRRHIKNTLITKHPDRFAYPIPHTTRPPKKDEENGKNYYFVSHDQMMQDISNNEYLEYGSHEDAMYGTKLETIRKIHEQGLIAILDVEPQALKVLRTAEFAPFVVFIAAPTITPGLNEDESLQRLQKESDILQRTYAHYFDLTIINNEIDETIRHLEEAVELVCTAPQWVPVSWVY

[5] = target: T2, Receptor-interacting serine/threonine-protein kinase 1 (Homo sapiens) (UniProt Q13546); test: Inhibition of RIPK1 (unknown origin) assessed as residual activity at 1000 nM by KINOMEscan analysis relative to control
T2 sequence (whole entry): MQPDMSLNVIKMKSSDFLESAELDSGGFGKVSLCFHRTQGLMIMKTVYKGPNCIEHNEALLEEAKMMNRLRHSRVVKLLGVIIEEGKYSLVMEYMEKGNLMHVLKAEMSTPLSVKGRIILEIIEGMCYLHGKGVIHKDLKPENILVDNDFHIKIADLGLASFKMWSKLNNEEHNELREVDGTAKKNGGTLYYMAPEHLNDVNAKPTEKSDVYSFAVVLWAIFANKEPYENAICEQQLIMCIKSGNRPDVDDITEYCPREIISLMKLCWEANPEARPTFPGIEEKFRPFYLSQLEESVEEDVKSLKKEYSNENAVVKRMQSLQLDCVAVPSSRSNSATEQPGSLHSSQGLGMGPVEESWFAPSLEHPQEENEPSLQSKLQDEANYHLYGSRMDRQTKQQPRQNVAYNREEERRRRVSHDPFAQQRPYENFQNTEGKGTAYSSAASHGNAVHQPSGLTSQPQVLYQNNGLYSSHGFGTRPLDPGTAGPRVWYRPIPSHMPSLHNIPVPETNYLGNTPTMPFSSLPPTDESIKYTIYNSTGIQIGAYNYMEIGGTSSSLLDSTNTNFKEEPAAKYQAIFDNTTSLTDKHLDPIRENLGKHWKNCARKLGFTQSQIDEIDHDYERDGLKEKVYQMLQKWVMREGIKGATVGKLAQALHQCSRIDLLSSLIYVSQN

[6] = target: Aurora kinase B (Homo sapiens) (UniProt Q96GD4); test: Inhibition of AURKB (unknown origin) assessed as residual activity at 1000 nM by KINOMEscan analysis relative to control
[7] = target: T3, Serine/threonine-protein kinase TAO3 (Homo sapiens) (UniProt Q9H2K8); test: Inhibition of TAOK3 (unknown origin) assessed as residual activity at 1000 nM by KINOMEscan analysis relative to control
T3 sequence (whole entry): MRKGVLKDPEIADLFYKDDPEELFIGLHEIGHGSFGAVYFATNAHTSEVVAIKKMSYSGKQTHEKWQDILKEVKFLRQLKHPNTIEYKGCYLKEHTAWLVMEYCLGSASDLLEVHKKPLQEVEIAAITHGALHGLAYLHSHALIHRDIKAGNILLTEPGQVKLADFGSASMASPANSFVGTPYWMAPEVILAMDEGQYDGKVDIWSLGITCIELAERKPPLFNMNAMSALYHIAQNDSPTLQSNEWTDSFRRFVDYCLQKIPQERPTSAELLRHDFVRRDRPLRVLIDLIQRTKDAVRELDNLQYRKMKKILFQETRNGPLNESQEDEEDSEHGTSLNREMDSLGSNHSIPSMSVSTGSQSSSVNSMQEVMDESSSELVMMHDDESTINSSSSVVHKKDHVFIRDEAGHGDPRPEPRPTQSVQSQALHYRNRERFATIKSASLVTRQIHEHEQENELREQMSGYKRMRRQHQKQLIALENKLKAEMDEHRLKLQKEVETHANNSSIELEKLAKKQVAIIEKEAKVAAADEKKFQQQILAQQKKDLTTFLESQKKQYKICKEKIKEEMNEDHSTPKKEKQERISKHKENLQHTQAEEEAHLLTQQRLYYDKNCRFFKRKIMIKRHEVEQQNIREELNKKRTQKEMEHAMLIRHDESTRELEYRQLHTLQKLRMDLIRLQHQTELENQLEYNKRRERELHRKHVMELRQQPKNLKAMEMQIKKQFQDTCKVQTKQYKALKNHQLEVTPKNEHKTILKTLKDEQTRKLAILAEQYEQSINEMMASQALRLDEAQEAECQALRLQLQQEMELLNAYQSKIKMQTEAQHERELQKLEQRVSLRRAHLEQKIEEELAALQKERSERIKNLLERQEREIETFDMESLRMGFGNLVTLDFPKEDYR

[8] = target: Mitogen-activated protein kinase kinase kinase kinase 4 (Homo sapiens) (UniProt O95819); test: Inhibition of MAP4K4 (unknown origin) assessed as residual activity at 1000 nM by KINOMEscan analysis relative to control
[9] = system: eIF-2-alpha kinase GCN2 (Homo sapiens), Q9P2K8 [S808G]; test: Inhibition of GCN2 S808G mutant […] domain (unknown origin) assessed as residual activity at 1000 nM by KINOMEscan analysis relative to control
Sequence of eIF-2-alpha kinase GCN2 (Homo sapiens), Q9P2K8 [S808G] (Q9P2K8 whole entry S808G): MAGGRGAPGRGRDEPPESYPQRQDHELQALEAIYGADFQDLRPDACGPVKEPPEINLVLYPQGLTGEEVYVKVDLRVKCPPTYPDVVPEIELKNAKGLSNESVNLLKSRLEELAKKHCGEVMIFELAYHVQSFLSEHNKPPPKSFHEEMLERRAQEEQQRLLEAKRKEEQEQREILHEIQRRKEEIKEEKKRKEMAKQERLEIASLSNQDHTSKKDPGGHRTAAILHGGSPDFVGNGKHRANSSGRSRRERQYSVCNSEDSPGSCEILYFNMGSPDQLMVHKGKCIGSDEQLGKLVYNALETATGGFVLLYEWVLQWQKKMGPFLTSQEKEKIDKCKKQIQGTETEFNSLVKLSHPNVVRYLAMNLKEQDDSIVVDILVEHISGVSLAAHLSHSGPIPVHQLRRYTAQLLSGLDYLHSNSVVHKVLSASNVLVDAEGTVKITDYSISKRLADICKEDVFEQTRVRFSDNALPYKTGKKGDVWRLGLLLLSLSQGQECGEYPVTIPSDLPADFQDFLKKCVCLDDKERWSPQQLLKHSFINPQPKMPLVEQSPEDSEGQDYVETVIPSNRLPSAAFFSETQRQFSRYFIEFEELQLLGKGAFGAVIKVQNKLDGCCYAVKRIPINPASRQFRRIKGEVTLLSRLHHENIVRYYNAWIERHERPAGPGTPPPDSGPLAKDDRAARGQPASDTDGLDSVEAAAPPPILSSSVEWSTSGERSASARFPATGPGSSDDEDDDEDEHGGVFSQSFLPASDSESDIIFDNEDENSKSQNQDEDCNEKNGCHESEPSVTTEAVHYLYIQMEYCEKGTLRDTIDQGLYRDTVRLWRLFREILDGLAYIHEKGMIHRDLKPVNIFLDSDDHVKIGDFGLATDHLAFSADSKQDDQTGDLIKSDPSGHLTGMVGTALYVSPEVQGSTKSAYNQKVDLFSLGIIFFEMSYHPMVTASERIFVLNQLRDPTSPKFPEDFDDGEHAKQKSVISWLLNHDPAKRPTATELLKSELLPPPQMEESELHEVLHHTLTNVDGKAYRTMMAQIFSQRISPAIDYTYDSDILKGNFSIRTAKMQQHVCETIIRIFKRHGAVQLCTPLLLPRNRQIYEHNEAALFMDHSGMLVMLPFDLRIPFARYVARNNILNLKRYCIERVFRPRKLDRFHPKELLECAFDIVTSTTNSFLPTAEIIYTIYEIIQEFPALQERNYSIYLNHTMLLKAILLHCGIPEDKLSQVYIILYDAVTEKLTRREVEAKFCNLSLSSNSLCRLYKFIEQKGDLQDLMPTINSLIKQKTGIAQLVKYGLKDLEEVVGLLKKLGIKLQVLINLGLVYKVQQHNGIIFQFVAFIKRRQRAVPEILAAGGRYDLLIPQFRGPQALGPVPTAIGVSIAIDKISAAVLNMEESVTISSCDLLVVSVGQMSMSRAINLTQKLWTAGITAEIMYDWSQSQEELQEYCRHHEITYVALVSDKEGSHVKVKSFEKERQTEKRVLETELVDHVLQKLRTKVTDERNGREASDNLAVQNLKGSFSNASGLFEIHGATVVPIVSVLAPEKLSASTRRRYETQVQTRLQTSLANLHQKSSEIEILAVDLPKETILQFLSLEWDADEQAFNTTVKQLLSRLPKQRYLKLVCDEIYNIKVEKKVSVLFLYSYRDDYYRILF

[10] = system: Epidermal growth factor receptor (Homo sapiens), P00533 [UNDEFINED MUTATION]; test: Inhibition of EGFR L747-T751del/Sins mutant (unknown origin) assessed as residual activity at 1000 nM by KINOMEscan analysis relative to control
Sequence of Epidermal growth factor receptor (Homo sapiens), P00533 [UNDEFINED MUTATION] (P00533 whole entry, looked up, stated change not applied): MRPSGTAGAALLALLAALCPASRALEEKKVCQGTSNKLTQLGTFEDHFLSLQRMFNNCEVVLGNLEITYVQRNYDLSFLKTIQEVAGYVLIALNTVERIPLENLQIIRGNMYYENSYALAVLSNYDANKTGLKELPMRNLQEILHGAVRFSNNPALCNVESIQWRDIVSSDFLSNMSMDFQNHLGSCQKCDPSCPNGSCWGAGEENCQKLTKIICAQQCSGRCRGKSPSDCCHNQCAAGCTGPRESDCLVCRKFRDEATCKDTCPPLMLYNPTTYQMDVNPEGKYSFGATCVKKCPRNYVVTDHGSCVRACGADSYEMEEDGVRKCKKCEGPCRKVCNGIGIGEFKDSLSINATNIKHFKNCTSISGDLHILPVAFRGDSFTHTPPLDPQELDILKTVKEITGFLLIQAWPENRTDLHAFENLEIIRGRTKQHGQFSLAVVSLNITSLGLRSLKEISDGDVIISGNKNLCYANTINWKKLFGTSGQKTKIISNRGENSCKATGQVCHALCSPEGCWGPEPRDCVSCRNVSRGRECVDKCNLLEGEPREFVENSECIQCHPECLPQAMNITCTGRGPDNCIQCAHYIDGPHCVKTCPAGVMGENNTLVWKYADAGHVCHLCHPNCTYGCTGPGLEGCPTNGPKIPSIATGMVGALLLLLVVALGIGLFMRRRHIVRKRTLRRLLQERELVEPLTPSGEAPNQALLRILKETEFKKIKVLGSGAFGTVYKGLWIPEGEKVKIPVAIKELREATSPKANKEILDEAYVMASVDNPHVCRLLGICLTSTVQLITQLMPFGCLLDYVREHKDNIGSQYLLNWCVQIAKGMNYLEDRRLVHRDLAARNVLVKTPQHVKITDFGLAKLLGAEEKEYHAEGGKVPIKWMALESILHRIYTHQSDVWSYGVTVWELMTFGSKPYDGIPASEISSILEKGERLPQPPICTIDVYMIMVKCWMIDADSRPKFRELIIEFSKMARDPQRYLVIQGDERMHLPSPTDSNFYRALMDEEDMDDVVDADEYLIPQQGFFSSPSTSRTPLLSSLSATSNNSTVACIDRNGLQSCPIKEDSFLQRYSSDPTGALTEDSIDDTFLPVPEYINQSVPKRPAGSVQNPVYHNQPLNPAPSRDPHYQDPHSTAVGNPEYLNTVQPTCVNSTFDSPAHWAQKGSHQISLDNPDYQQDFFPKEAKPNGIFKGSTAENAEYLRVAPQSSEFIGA

[11] = target: Rho-associated protein kinase 1 (Homo sapiens) (UniProt Q13464); test: Inhibition of ROCK1 (unknown origin) assessed as residual activity at 1000 nM by KINOMEscan analysis relative to control
[12] = species on record: Homo sapiens; test: Inhibition of JNK3 (unknown origin) assessed as residual activity at 1000 nM by KINOMEscan analysis relative to control

Sequence of Vascular endothelial growth factor receptor 1 (Homo sapiens) (P17948 whole entry): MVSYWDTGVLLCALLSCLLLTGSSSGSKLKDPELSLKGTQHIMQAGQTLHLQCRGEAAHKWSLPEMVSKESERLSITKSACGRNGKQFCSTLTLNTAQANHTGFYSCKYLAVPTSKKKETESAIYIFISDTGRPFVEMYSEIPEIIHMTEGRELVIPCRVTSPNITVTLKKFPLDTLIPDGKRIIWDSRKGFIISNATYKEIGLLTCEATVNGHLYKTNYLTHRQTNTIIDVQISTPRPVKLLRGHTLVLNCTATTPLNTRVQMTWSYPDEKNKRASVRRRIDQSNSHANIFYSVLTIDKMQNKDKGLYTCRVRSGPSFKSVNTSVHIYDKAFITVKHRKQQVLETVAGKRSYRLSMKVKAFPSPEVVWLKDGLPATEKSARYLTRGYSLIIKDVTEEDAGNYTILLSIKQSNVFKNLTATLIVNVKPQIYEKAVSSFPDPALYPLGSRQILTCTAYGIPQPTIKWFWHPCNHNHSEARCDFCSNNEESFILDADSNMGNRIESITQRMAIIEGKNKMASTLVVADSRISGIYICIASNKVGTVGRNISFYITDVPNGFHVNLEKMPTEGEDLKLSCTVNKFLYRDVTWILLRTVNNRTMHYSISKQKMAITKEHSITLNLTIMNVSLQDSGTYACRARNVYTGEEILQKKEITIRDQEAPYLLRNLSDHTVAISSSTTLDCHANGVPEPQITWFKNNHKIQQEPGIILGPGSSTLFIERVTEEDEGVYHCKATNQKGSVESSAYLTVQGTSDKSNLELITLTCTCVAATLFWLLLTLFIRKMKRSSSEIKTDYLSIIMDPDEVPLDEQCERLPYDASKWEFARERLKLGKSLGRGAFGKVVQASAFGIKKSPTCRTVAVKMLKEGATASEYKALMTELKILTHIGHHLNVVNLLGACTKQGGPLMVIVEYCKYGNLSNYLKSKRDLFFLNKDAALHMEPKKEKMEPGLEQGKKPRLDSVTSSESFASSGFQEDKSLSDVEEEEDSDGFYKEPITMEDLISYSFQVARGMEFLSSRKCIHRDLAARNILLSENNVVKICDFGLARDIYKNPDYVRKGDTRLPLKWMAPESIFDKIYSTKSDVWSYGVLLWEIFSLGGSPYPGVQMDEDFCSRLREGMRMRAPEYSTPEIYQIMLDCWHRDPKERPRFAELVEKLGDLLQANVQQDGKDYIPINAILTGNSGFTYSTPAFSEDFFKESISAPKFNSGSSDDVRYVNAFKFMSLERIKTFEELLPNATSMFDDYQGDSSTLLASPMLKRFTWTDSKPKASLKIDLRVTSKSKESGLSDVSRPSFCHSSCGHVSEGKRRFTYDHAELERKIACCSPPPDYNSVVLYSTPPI

Row | Compound | Activity [1] [%] | Activity [2] [%] | Activity [3] [%] | Activity [4] [%] | Activity [5] [%] | Activity [6] [%] | Activity [7] [%] | Activity [8] [%] | Activity [9] [%] | Activity [10] [%] | Activity [11] [%] | Activity [12] [%]
1 | COc1cc2nc(C)nc(N[C@H](C)c3cccc(-c4cn[nH]c4)c3)c2cc1OC | 71 | 100 | 92 | 78 | 85 | 79 | 100 | 98 | 100 | 99 | 96 | 80
2 | COc1cc2ncnc(N[C@H](C)c3cccc4ccccc34)c2cc1OC | 96 | 97 | 75 | 72 | 93 | 98 | 79 | 100 | 100 | 5.8 | 88 | 97
